Experimental data published in article PMC6691788, “Design and synthesis of phthalazine-based compounds as potent anticancer agents with potential antiangiogenic activity via VEGFR-2 inhibition” (Journal of Enzyme Inhibition and Medicinal Chemistry, 2019).

What was measured:
Assay in all cases: NCI 60 cell panel SRB screen
Assay type in all cases: cell-based
U251 = conditions: Homo sapiens, U-251; for activity at 10 µM: U251, single dose 10 μM, read-out: percent cell growth promotion; for GI50 / IC (TGI) / CC50: U251, 5 log dose; for CC50: 48 h, read-out: LC50 (the source's name)
MDA-MB-468 = conditions: Homo sapiens; for activity at 10 µM: MDA-MB-468, MDA-MBA-468, single dose 10 μM, read-out: percent cell growth promotion; for GI50 / IC (TGI) / CC50: MDA-MB-468, 5 log dose; for CC50: 48 h, read-out: LC50 (the source's name)
Experimental: The human tumor cell lines of the cancer-screening panel were grown in RPMI 1640 medium containing 5% fetal bovine serum and […] L-glutamine. For a typical screening experiment, cells are inoculated into 96 well microtiter plates in 100 ml at plating densities ranging from 5000 to 40,000 cells/well depending on the doubling time of individual cell lines. After cell inoculation, the microtiter plates are incubated at 37 °C, 5% CO2, 95% air and 100%
relative humidity for 24 h prior to addition of experimental drugs. After 24 h, two plates of each cell line are fixed in situ with TCA, to represent a measurement of the cell population for each cell line at the time of drug addition (Tz). Experimental drugs are dissolved in dimethyl sulfoxide at 400-fold the desired final maximum test concentration and stored frozen prior to use. At the time of drug addition, an aliquot of frozen concentrate is thawed and diluted to twice the desired final maximum test concentration with complete medium containing […] Gentamicin. Additional four, 10-fold or ½log serial dilutions are made to provide a total of five drug concentrations plus control. Aliquots of […] of these different drug dilutions are added to the appropriate microtiter wells already containing 100 ml of medium, resulting in the required final drug concentrations. Following drug addition, the plates are incubated for an additional 48 h at 37 °C, 5% CO2, 95% air, and 100% relative humidity. For adherent cells, the assay is terminated by the addition of cold TCA. Cells are fixed in situ by the gentle addition of […] of cold 50% (w/v) TCA (final concentration,10% TCA) and incubated for 60 min at 4 °C. The supernatant is discarded, and the plates are washed five times with tap water and air dried. Sulforhodamine B (SRB) solution (100 ml) at 0.4% (w/v) in 1% acetic acid is added to each well, and plates are incubated for 10 min at room temperature. After staining, unbound dye is removed by washing five times with 1% acetic acid and the plates are air dried. Bound stain is subsequently dissolved with 10 μM trizma base, and the absorbance is read on an automated plate reader at a wavelength of 515 nm. For suspension cells, the methodology is the same except that the assay is terminated by fixing settled cells at the bottom of the wells by gently adding […] of 80% TCA (final concentration, 16% TCA).
Using the seven absorbance measurements [time zero, (Tz), control growth, (C), and test growth in the presence of drug at the five concentration levels (Ti)], the percentage growth is calculated at each of the drug concentrations levels. Percentage growth inhibition is calculated as: [(Ti -Tz)/(C - Tz)] x 100 for concentrations for which Ti>/ ¼ Tz and [(Ti -Tz) / Tz] x100 for concentrations for which Ti <Tz.
Three dose response parameters are calculated for each experimental agent. Growth inhibition of 50% (GI50) is calculated from [(Ti -Tz)/(C - Tz)] x 100 =50, which is the drug concentration resulting in a 50% reduction in the net protein increase (as measured by SRB staining) in control cells during the drug incubation. The drug concentration resulting in total growth inhibition (TGI) is calculated from Ti ¼ Tz. The LC50 (concentration of drug resulting in a 50% reduction in the measured protein at the end of the drug treatment as compared to that at the beginning) indicating a net loss of cells following treatment is calculated from [(Ti - Tz) / Tz] x100 = -50. Values are calculated for each of these three parameters if the level of activity is reached; however, if the effect is not reached or is exceeded, the value for that parameter is expressed as greater or less than the maximum or minimum concentration tested.

NCI-H460 = conditions: Homo sapiens; for activity at 10 µM: NCI-H460, single dose 10 μM, read-out: percent cell growth promotion; for GI50 / IC (TGI) / LC50 (concentration causing 50% cell kill): NCI-H460, 5 log dose; for LC50 (concentration causing 50% cell kill): 48 h
SNB-75 = conditions: Homo sapiens; for activity at 10 µM: SNB-75, single dose 10 μM, read-out: percent cell growth promotion; for GI50 / IC (TGI) / LC50 (concentration killing 50% of cells): SNB-75, 5 log dose; for LC50 (concentration killing 50% of cells): 48 h
ACHN = conditions: Homo sapiens; for activity at 10 µM: single dose 10 μM, read-out: percent cell growth promotion; for GI50 / IC (TGI) / CC50: 5 log dose; for CC50: 48 h, read-out: LC50 (the source's name)
SK-MEL-5 = conditions: Homo sapiens; for activity at 10 µM: SK-MEL-5, read-out: percent cell growth promotion; for GI50: SK-MEL-5; for IC (TGI): SK-MEL-5, read-out: TGI; for CC50: SK-MEL-5, 5 log dose, 48 h, read-out: LC50 (the source's name)
BT-549 = conditions: Homo sapiens; for activity at 10 µM: BT-549, read-out: percent cell growth promotion; for GI50: BT-549; for IC (TGI): BT-549, read-out: TGI; for CC50: BT-549, 5 log dose, 48 h, read-out: LC50 (the source's name)

Row | SMILES | activity at 10 µM (U251) [%] | activity at 10 µM (MDA-MB-468) [%] | activity at 10 µM (NCI-H460) [%] | activity at 10 µM (SNB-75) [%] | activity at 10 µM (ACHN) [%] | activity at 10 µM (SK-MEL-5) [%] | activity at 10 µM (BT-549) [%] | GI50 (U251) [µM] | IC (TGI) (U251) [µM] | CC50 (U251) [µM] | GI50 (MDA-MB-468) [µM] | IC (TGI) (MDA-MB-468) [µM] | CC50 (MDA-MB-468) [µM] | GI50 (NCI-H460) [µM] | IC (TGI) (NCI-H460) [µM] | LC50 (concentration causing 50% cell kill) (NCI-H460) [µM] | GI50 (SNB-75) [µM] | IC (TGI) (SNB-75) [µM] | LC50 (concentration killing 50% of cells) (SNB-75) [µM] | GI50 (ACHN) [µM] | other results
1 | O=C(Nc1ccc(Nc2nncc3ccccc23)cc1)c1ccc(Cl)cc1 [Compound 5b, 4-Chloro-N-(4-(phthalazin-1-ylamino)phenyl)benzamide] | 99.5 | 101 | 101 | 98.1 | 112 | 99.8 | 107 | – | – | – | – | – | – | – | – | – | – | – | – | – | –
2 | Cc1nnc(Nc2ccc(NC(=O)c3ccc(Cl)cc3)cc2)c2ccccc12 [Compound 5d, 4-Chloro-N-(4–(4-methylphthalazin-1-ylamino)phenyl)benzamide] | 81 | 104 | 96.4 | 81.2 | 111 | 78.7 | 92.2 | – | – | – | – | – | – | – | – | – | – | – | – | – | –
3 | O=C(Nc1ccc(Cl)cc1)Nc1ccc(Nc2nncc3ccccc23)cc1 [Compound 6b, 1–(4-Chlorophenyl)-3–(4-(phthalazin-1-ylamino)phenyl)urea] | 18.3 | 0.17 | 9.89 | 46.2 | 22.4 | 7.12 | 15.7 | 2.86 | 10.3 | 37.2 | 2.57 | 9.47 | > 100 | 2.91 | 11.9 | 56.8 | 1.88 | 8.67 | 31.8 | 1.12 | IC (TGI) (ACHN): 7.12 µM; CC50 (ACHN): > 100 µM; GI50 (SK-MEL-5): 2.31 µM; IC (TGI) (SK-MEL-5): 6.82 µM; CC50 (SK-MEL-5): 24.7 µM; GI50 (BT-549): 2.15 µM; IC (TGI) (BT-549): 9.28 µM; CC50 (BT-549): > 100 µM
4 | Cc1nnc(Nc2ccc(NC(=O)Nc3ccc(Cl)cc3)cc2)c2ccccc12 [Compound 6e, 1–(4-Chlorophenyl)-3–(4-(4-methylphthalazin-1-ylamino)phenyl)urea] | 5.4 | 6.44 | 26.1 | 68.1 | 58.8 | 52.3 | 11.4 | 1.98 | 3.75 | 7.07 | 2.84 | 7.43 | 36.2 | 3.46 | 11.7 | 39.1 | 1.91 | 5.49 | 21.3 | 1.84 | IC (TGI) (ACHN): 3.69 µM; CC50 (ACHN): 7.41 µM; GI50 (SK-MEL-5): 1.85 µM; IC (TGI) (SK-MEL-5): 3.5 µM; CC50 (SK-MEL-5): 6.65 µM; GI50 (BT-549): 2.21 µM; IC (TGI) (BT-549): 5.55 µM; CC50 (BT-549): 66 µM
5 | O=C(Nc1ccc(Cl)cc1)Nc1ccc(Oc2nncc3ccccc23)cc1 [Compound 7b, 1–(4-Chlorophenyl)-3–(4-(phthalazin-1-yloxy)phenyl)urea] | -31.1 | -76.2 | 21.5 | -3.13 | -15.1 | -43.3 | -10.3 | 1.01 | 2.38 | 5.61 | 0.75 | 2.52 | 7.18 | 2.79 | 8.32 | 45.5 | 0.45 | 1.95 | 5.2 | 1.05 | IC (TGI) (ACHN): 2.33 µM; CC50 (ACHN): 5.18 µM; GI50 (SK-MEL-5): 1.02 µM; IC (TGI) (SK-MEL-5): 2.81 µM; CC50 (SK-MEL-5): 6.56 µM; GI50 (BT-549): 2.08 µM; IC (TGI) (BT-549): 7.43 µM; CC50 (BT-549): 58.1 µM
6 | Cc1nnc(Oc2ccc(NC(=O)Nc3ccc(Cl)cc3)cc2)c2ccccc12 [Compound 7e, 1–(4-Chlorophenyl)-3–(4-(4-methylphthalazin-1-yloxy)phenyl)urea] | 60 | 68.6 | 78.2 | 47.3 | 80.7 | 70.2 | 72 | – | – | – | – | – | – | – | – | – | – | – | – | – | –
